Experimental data from PubChem BioAssay (NCI).
Several values for one entry are separate records, joined by “and”; a condition that tells them apart may be missing. Identical values can stand only once.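 Results reflect a 48-hour exposure of cells in 96-well plates to compound at five concentrations. At the GI50, growth is halved. TGI: concentration producing complete growth inhibition.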

Key:
Assay in all cases: growth of human tumour cells (NCI), 48 h
A549 NSCLC = tested on: A549 NSCLC
U251 CNS = tested on: U251 CNS
KM12 colon = tested on: KM12 colon
NCI/ADR-RES ovarian = tested on: NCI/ADR-RES ovarian
SF-268 CNS = tested on: SF-268 CNS
DU-145 prostate = tested on: DU-145 prostate
MDA-MB-435 = tested on: MDA-MB-435
BT-549 breast = tested on: BT-549 breast
CCRF-CEM leukemia = tested on: CCRF-CEM leukemia
EKVX NSCLC = tested on: EKVX NSCLC

Structure (SMILES) | GI50 (A549 NSCLC) | TGI (A549 NSCLC) | GI50 (U251 CNS) | TGI (U251 CNS) | GI50 (KM12 colon) | TGI (KM12 colon) | GI50 (NCI/ADR-RES ovarian) | TGI (NCI/ADR-RES ovarian) | GI50 (SF-268 CNS) | TGI (SF-268 CNS) | GI50 (DU-145 prostate) | TGI (DU-145 prostate) | GI50 (MDA-MB-435) | TGI (MDA-MB-435) | GI50 (BT-549 breast) | TGI (BT-549 breast) | GI50 (CCRF-CEM leukemia) | TGI (CCRF-CEM leukemia) | GI50 (EKVX NSCLC) | TGI (EKVX NSCLC)
Nc1ccccc1-c1ccc([N+](=O)[O-])cc1 | 4.65 µM | > 100 µM | 40.7 µM | > 100 µM | 1.59 µM | 11.4 µM | 26.2 µM | > 100 µM | 12.9 µM | > 100 µM | 73.1 µM | > 100 µM | 5.01 µM | > 100 µM | 4.54 µM | 37.1 µM | 2.31 µM | > 100 µM | 8.58 µM | > 100 µM
COc1cc(-n2cc(-c3ccc(F)cc3)nc2SCc2ccccc2)cc(OC)c1OC | > 100 µM | > 100 µM | > 100 µM | > 100 µM | > 100 µM | > 100 µM | > 100 µM | > 100 µM | > 100 µM | > 100 µM | > 100 µM | > 100 µM | > 100 µM | > 100 µM | > 100 µM | > 100 µM | 17.7 µM | 43.8 µM | > 100 µM | > 100 µM
CC(C)c1c(C(=O)Nc2ccccc2)c(-c2ccccc2)c(-c2ccc(F)cc2)n1CC[C@@H]1CC=CC(=O)O1 | 1.99 µM | 4.6 µM | 1.7 µM | 3.17 µM | 1.65 µM | 3.24 µM | 2.46 µM | 6.09 µM | 1.81 µM | 3.65 µM | 1.84 µM | 3.27 µM | 1.7 µM | 3.27 µM | 1.6 µM | 3.46 µM | 0.39 µM | 2.44 µM | 1.86 µM | 3.68 µM
Cn1ccnc1C(=O)/C=C/c1ccc(C(=O)Nc2ccc(S(F)(F)(F)(F)F)cc2)cc1 | 3.81 µM | > 14.3 µM | 0.506 µM | > 14.3 µM | 2.77 µM | > 14.3 µM | 1.52 µM | > 14.3 µM | 3.09 µM | > 14.3 µM | 2.41 µM | > 14.3 µM | 3.04 µM | > 14.3 µM | 2.62 µM | > 14.3 µM | 0.738 µM | > 14.3 µM | 0.953 µM | > 14.3 µM
CC(C)(O)C#Cc1ccc(/C=C/C(=O)c2ccccc2)s1 | 16.5 µM | 30.5 µM | 13.6 µM | 26.5 µM | 4.37 µM | 14.4 µM | 18.3 µM | 39 µM | 16.7 µM | 32.8 µM | 14.9 µM | 28.1 µM | 12.6 µM | 26.4 µM | 16.2 µM | 30.8 µM | 13.6 µM | 64.9 µM | 17.9 µM | 32 µM
COc1cc2c(cc1O)-c1c(cnn1-c1ccc([N+](=O)[O-])cc1)CCC2 |  | 42.4 µM |  | 24.9 µM |  | 31.7 µM |  | 42.7 µM |  | > 100 µM |  | > 100 µM |  | 48.6 µM |  | 76.1 µM |  | 30.6 µM |  | 80.5 µM
COc1cc(-c2nc3sccn3c2-c2ccnc(NCCNS(=O)(=O)c3ccc(Cl)cc3)n2)ccc1F | 3.86 µM | > 100 µM | 7.67 µM | > 100 µM | 4.26 µM | > 100 µM | 2.89 µM | > 100 µM | 5.75 µM | > 100 µM | 3.62 µM | > 100 µM | 3.63 µM | 58.1 µM | 2.61 µM | > 100 µM | 0.48 µM | > 100 µM | 5.04 µM | > 100 µM
COc1ccc2c(c1)=C(C=C1C=CN(O)C=C1)C(=O)N=2 | 29.8 µM | > 100 µM | 27.3 µM | > 100 µM | 17.4 µM | 41.3 µM | 30.3 µM | > 86.9 µM | 28.1 µM | 93.2 µM | 32.5 µM | > 100 µM | 35 µM | > 89.6 µM | 22.6 µM | 88.1 µM | 25.3 µM | > 79.1 µM | 43.9 µM | > 100 µM
COc1cc2c3c(n(CCCN(CCN)CCCn4c5c(c6cc(OC)c(OC)cc6c4=O)C(=O)c4cc6c(cc4-5)OCO6)c(=O)c2cc1OC)-c1cc2c(cc1C3=O)OCO2 | 2.72 µM | > 100 µM | 0.354 µM | 5.99 µM | 4.04 µM | > 37 µM | 2.22 µM | > 76.1 µM | 0.794 µM | > 29.3 µM | 0.663 µM | > 100 µM | 2.22 µM | 23.2 µM | 5.08 µM | > 79.3 µM | 0.116 µM | 0.407 µM | 11.9 µM | > 62.6 µM
N=C(N)c1ccc(OCCOCCOc2ccc(C(=N)N)cc2)cc1 | 40.1 µM | > 100 µM | 77.6 µM | > 100 µM | 41.6 µM | > 100 µM | > 100 µM | > 100 µM | 52 µM | > 100 µM | 96.1 µM | > 100 µM | 84.8 µM | > 100 µM | 53.5 µM | > 100 µM | 1 µM | > 100 µM | > 100 µM | > 100 µM
S=C(N/N=C(/c1ccccc1)c1ccccn1)N1CCCCC1 | 0.00361 µM | 1.71 µM and 3.88 µM | < 0.001 µM | 1.45 µM and 1.76 µM | 0.00123 µM | 1.79 µM and 2.11 µM | < 0.001 µM | 1.87 µM and 0.986 µM | 0.323 µM | 2.5 µM and 5.35 µM | 1.11 µM | 2.32 µM and 2.87 µM |  | 1.98 µM and 1.85 µM |  | 2.53 µM | < 0.001 µM | 0.0332 µM | 1.21 µM | 2.45 µM and 0.558 µM
CC(=O)CCc1ccc(OC2OC(COC(=O)c3cc(O)c(O)c(O)c3)C(O)C(O)C2OC(=O)/C=C/c2ccccc2)cc1 (stereo not given) | 25.8 µM | 59.7 µM | 11.9 µM | 30.1 µM | 21 µM | 43.5 µM | > 100 µM | > 100 µM | 19.3 µM | 49.4 µM | 23.5 µM | 42.8 µM | 16.8 µM | 37.1 µM | 35.6 µM | 64.6 µM | 20.7 µM | 52.2 µM | 40.3 µM | 72 µM
CCN1/C(=C/C=C/c2n(-c3ccccc3)c3ccc(-c4nc5ccccc5s4)cc3[n+]2CC)N(c2ccccc2)c2ccc(-c3nc4ccccc4s3)cc21 | 0.284 µM | > 26.1 µM | 0.274 µM | 1.92 µM | 1.24 µM | > 50 µM | 3.55 µM | > 50 µM | 0.525 µM | > 50 µM | 0.374 µM | 2.49 µM | 1.35 µM | > 50 µM | 0.5 µM | 3.28 µM | 2.69 µM | > 50 µM | 0.387 µM | > 50 µM
C/C=C/C/C=C/CCC(=O)[C@H]1O[C@H]1C(N)=O | 17.3 µM | 51.3 µM | 14.5 µM | 28.3 µM | 17.2 µM | 32 µM |  | > 100 µM |  | 39.3 µM | 13.7 µM | 27.1 µM | 11.6 µM | 25 µM |  | 25.3 µM | 6.02 µM | 62.3 µM | 14.1 µM | 28.9 µM
